Test results reported in patent EP4582418A1, “CRYSTALLINE FORM OF QUINOLINE DERIVATIVE INHIBITOR, PREPARATION METHOD THEREFOR AND USE THEREOF” (TransThera Sciences (Nanjing), Inc., priority 2022, dated 2024).

Assay: PK evaluation of crystal forms in rats
Type: in vivo
Protocol: The experimental crystal forms I and II of the methanesulfonate of the compound of formula (I) were each prepared into a suspension solution with 0.5% HPMC. The compound solutions were intragastrically administered to SD rats at a dose of 60 mg/kg. Blood samples were collected at time points of 15 min, 30 min, 1 h, 2 h, 4 h, 6 h, 8 h, 24 h, 48 h, 72 h, and 96 h after administration.
The animals were fixed, with tails warmed in a water bath 10 min before each sampling time point. About 100 µL of blood was collected via the tail vein, and the blood samples were collected in anticoagulation tubes containing EDTA-K2. The blood samples were then centrifuged at 8,000 rpm for 6 min at 4 °C to give plasma samples. The plasma samples were prepared within 30 min after blood collection. The plasma samples were stored in a refrigerator at -80 °C before the test.
The sample to be tested was taken out from the -80 °C refrigerator, naturally thawed at room temperature, and vortexed for 5 min. 20 µL of plasma sample was precisely pipetted to a 1.5 mL centrifuge tube, and 200 µL of internal standard working solution (a solution of tolbutamide in methanol, 100 ng/mL) was added. The resulting mixture was thoroughly mixed, vortexed for 5 min, and centrifuged at 12,000 rpm for 5 min. 50 µL of supernatant was precisely pipetted to a 96-well plate pre-loaded with 150 µL of water per well, and the resulting mixture was vortexed for 5 min and then used for LC-MS/MS analysis.
The concentrations of the test samples were calculated by Analyst 1.6.3 from AB Sciex. Parameters such as mean, standard deviation, and coefficient of variation (excluding those output directly by Analyst 1.6.3) were calculated by Microsoft Excel. PK parameters were calculated by Pharsight Phoenix 6.1 software NCA (Tmax was in median).

COc1cc2nccc(Oc3ccc(NC(=O)c4nn(C(C)C)cc(-c5ccc(F)cc5)c4=O)nc3)c2cc1OC [Crystal form I, N-(5-((6,7-dimethoxyquinolin-4-yl)oxy)pyridin-2-yl)-5-(4-fluorophenyl)-1-isopropyl-4-oxo-1,4-dihydropyridazine-3-carboxamide]
λ_z (SD rats, PO 60 mg/kg, n = 3, suspension in 0.5% HPMC): 0.018 h⁻¹
AUC(0-t) (SD, rat, plasma, po, 60 mg/kg, 0-96 h, n = 3): 4020 µg·h/mL
Tmax (SD, rat, plasma, po, 60 mg/kg, median, n = 3, read-out: Tmax): 8 h
Cmax (SD, rat, plasma, po, 60 mg/kg, n = 3, read-out: Cmax): 69 µg/mL
tz1/2 (terminal half-life, SD rats, PO 60 mg/kg, n = 3): 38.6 h
